This is an account of results in article PMC12713470, “Design and Synthesis of Novel Chalcone Derivatives Targeting Bladder and Liver Cancer: Cytotoxicity Evaluation and Preliminary Mechanistic Studies” (ACS Omega, 2025).

SMILES strings stand for the structures.

Assay [1] deals with MRC-5: human lung fibroblast cells. Briefly: MTT cytotoxicity assay on MRC-5 cells. It is filed as cell-based. The settings on record: MRC5, 24 h incubation, n = 3, ± standard deviation. The protocol: (§1) Cytotoxicity was determined using the MTT colorimetric assay, and half-maximal inhibitory concentrations (IC50, μM) were obtained for all cell lines (Table ). The selectivity index (SI) was calculated as the ratio of IC50 MRC-5/IC50 cancer cell line. Doxorubicin was employed as a positive control due to its broad-spectrum clinical use, either alone or in combination, against hepatocellular, ovarian, cervical, and bladder cancers. −
(§2) In vitro biological assays were performed by using five human cell lines for cytotoxicity evaluation. HepG2 cells (ATCC HB-8065), derived from a human hepatocellular carcinoma of the liver (person), were cultured in Dulbecco’s modified Eagle medium (DMEM) supplemented with 5% fetal bovine serum (FBS), penicillin/streptomycin (100 IU/mL), and amphotericin B (5 μg/mL), in a humidified incubator with 5% CO2 at 37 °C. These cells were plated at a concentration of 2.0 × 10^4 cells/well in 96-well microplates. MRC-5 cells (ATCC CCL-171), derived from human lung fibroblasts of a […] fetus, were cultured under the same conditions and plated at 1.0 × 10^4 cells/well. T24 cells (ATCC HTB-4), established from a transitional cell carcinoma of the bladder (person), were also cultured under identical conditions and plated at a density of 1.0 × 10^4 cells/well. TOV-21G cells (ATCC CRL-11730), derived from a primary malignant ovarian adenocarcinoma (person), were maintained in DMEM with the same supplementation and environmental conditions and plated at 5.0 × 10^4 cells/well. […]
(§3) HeLa, HepG2, MRC-5, T24, and TOV-21G cells were suspended in a culture medium supplemented with 5% fetal bovine serum (FBS) and seeded into 96-well microplates. The plates were incubated under a humidified atmosphere containing 5% CO2 at 37 °C for 24 h, allowing for adherence and monolayer formation. , Eight serial dilutions of the test samples, previously solubilized in dimethyl sulfoxide (DMSO), were prepared in DMEM supplemented with 1% FBS, covering a concentration range from […], and the results were converted to […]. The volume of DMSO in each well was limited to a final concentration not exceeding 2%. Following monolayer formation, the culture medium was aspirated and replaced with 100 μL of the diluted test samples and 100 μL of DMEM containing 1% FBS. The plates were then incubated under the same atmospheric and temperature conditions.
(§4) Two hours prior to end point reading, 20 μL of MTT [3-(4,5-dimethylthiazol-2-yl)-2,5-diphenyltetrazolium bromide] solution (1.0 mg/mL in sterile phosphate-buffered saline, Sigma-Aldrich) was added to each well. The incubation period following sample addition varied according to the cell line: 24 h for MRC-5, 48 h for T24, and 72 h for HeLa, HepG2, and TOV-21G. After the appropriate incubation, absorbance was measured by using a VICTOR X3 microplate reader (PerkinElmer), and data were processed with WorkOut 2.5 software at a wavelength of 490 nm. Formazan formation, resulting from the MTT reduction by metabolically active cells, was used as an indirect measure of cell viability. The percentage of cytotoxicity was calculated using the equation % cytotoxicity = [(A – B)/A] × 100, where A is the optical density (OD4 9 0) of untreated control cells and B is the OD4 9 0 of treated cells.
(§5) Cytotoxicity was expressed as the 50% cytotoxic concentration (CC5 0), representing the concentration of sample required to reduce cell viability by 50% relative to that of the untreated control.
(In general: Tetrazolium assays rely on reduction of a dye to a coloured formazan, in cell work by metabolically active cells.)

Assay [2] deals with HeLa: human cervical adenocarcinoma cells. The assay can be described thus: MTT cytotoxicity assay on HeLa cells. The class given is cell-based. The protocol: as §1, §2, §3, §4, §5
Assay [3] has as its system T24: human urinary bladder carcinoma cells. The assay can be described thus: MTT cytotoxicity assay on T24 cells. It is filed as cell-based. The protocol: as §1, §2, §3, §4, §5
In assay [4] the test system is HeLa, HepG2, T24, and TOV-21G. Briefly: MTT cytotoxicity, all evaluated cancer cells (summary). It is filed as cell-based. Conditions: Homo sapiens, read-out: IC50 values against all evaluated cancer cells. The protocol:
as §1
In vitro biological assays were performed by using five human cell lines for cytotoxicity evaluation. […]
as §4, with “The incubation period following sample addition varied according to the cell line: 24 h for MRC-5, 48 h for T24, and 72 h for HeLa, HepG2, and TOV-21G.” left out, “Formazan formation, resulting from the MTT reduction by metabolically active cells, was used as an indirect measure of cell viability.” left out
as §5

The test system of assay [5] is HepG2 cells. The assay can be described thus: Cell migration (wound), HepG2. It is filed as cell-based, human. Conditions: 4.62 and 9.25 μM, 48 h. Here is the method: The cells were cultured in DMEM (Sigma-Aldrich, St. Louis, USA) and supplemented with 10% fetal bovine serum (Cultilab Ltda., Campinas, Brazil) and antibiotics (amphotericin). They were incubated at 37 °C in a humidified atmosphere with 5% CO2. Control cell groups, which were not exposed to the compound, were included in the experiments and were conducted in triplicate. The chalcone was dissolved in dimethyl sulfoxide (DMSO) for the assays.
Cells were seeded in 24-well plates at a density of 1.0 × 10^5 cells per well and incubated for 24 h to allow attachment. After this incubation, a sterile 200 μL pipet tip was used to scrape the cell monolayer, creating a wound. The initial wound area was photographed using an inverted microscope equipped with a camera. Following this, the cells were washed with Hanks’ solution and treated with the glycosylated chalcone at concentrations of 2.15, 4.62, 9.25, and 18.50 μM for 48 h. At the end of the treatment period, the cells were photographed again, and migration into the wound area was assessed. The percentage of cell migration was quantified using ImageJ and GraphPad Prism software.

The test system of assay [6] is HepG2 cells. The assay can be described thus: Apoptosis/necrosis analysis (annexin V/PI), HepG2. The class given is cell-based, human. The settings on record: 2.15, 4.62, or 9.25 μM, 48 h. Here is the method: Cells in the exponential growth phase were seeded in 12-well plates at a density of 1 × 10^5 cells per well in 3 mL of complete culture medium. Along with the experimental groups, four control groups were included: one without labeling, one labeled only with propidium iodide (PI), one labeled only with Annexin V, and one labeled with both PI and Annexin V. After 24 h, the cells were treated with the compound at concentrations of 2.15, 4.62, 9.25, and 18.50 μM for 48 h. Following the treatment period, the supernatant from each well was transferred to cytometry tubes and centrifuged at 1100 rpm for 10 min. The remaining adhered cells were washed with 1 mL of Hanks’ solution, and 500 μL of trypsin was added to detach the cells. The trypsin action was neutralized by adding 500 μL of complete medium, and the contents (detached cells plus precentrifuged supernatant) were collected into cytometry tubes, which were then centrifuged again at 1100 rpm for 10 min. After centrifugation, the supernatant was discarded. For labeling, Annexin V binding buffer was prepared by diluting 1 mL of component C in 5 mL of distilled water. Next, a 100 μg/mL propidium iodide working solution was prepared by diluting 5 μL of the 1 mg/mL stock (component B) in 45 μL of 1× buffer. […]

`CCCc1cc(/C=C/C(=O)c2ccc(C)cc2)c(OC)c(OC)c1` [compound 3, (E)-3-(2,3-Dimethoxy-5-propylphenyl)-1-(p-tolyl)-prop-2-en-1-one]: the IC50 (commonly the concentration that inhibits the measured activity by half) in assay [1] is 55.5 ± 1.2 µM; in assay [2] (Homo sapiens, HeLa, MTT, 72 h incubation, n = 3, NA: noncytotoxic at the concentrations tested) it was 5.9 ± 1.6 µM; in assay [3] (Homo sapiens, T-24, MTT, 48 h incubation, n = 3, NA: noncytotoxic at the concentrations tested), 5 ± 1.6 µM; in assay [4] it was 3.03 to 5.92 µM. Also, the “SI (HeLa)” value in assay [2] (IC50 MRC-5/IC50 HeLa) came to 9.3. Also, in assay [3] (IC50 MRC-5/IC50 T24), the “SI (T24)” value is listed as 11.1. Besides, the “potency against T24 relative to hit 1” value in assay [3] (ratio of IC50 values, 1 vs 3) is listed as “more than 32 times”. The “cell migration, HepG2” value in the assay with HepG2 cells [5] is reported as “reduction of cell migration”. The “percentage of apoptotic or necrotic cells, HepG2” value in the assay with HepG2 cells [6] is “did not result in a significant increase”.
